Values quoted from earlier work, collected in patent publication US20130251697A1, “NOVEL NASAL SPRAY” (priority 2009, published 2013).

Test system: SIRT1
Conditions: life extending genes

Oc1ccc(C=Cc2cc(O)cc(O)c2)cc1 [Resveratrol]
increases genes SIRT1 expression: up to 13 fold
